# In patent US20080090898A1, “Boosting immunity” (Mars, Incorporated, priority 2006, published 2008):
# What was measured:
# CD4 T cells = assay: Cytokine production of isolated CD4 T cells activated with anti CD3; assay type: cell-based, human
# Method: (§1) CD4+ and CD8+ cells were isolated by positive selection. Briefly, 10×10^7 PBMC cells in 90 μl were incubated with 10 μl of either anti-CD4+ or CD8+ magnetic reagent and incubated at 4° C. for a half hour. The cells were then separated by magnetic cell sorting using a Miltenyi Biotec system, were counted and diluted to a concentration of 2×10^6 cells/ml with BioWhittaker X Vivo. Autologous plasma from the subject was added to a concentration of 1% by volume. A 96 well plate was treated with antihuman-CD3 in PBS (BD Biosciences) at a concentration of 0.5 μg/ml for 4 hours. After the 4 hour incubation, the plate was washed 4 times with PBS. Purified CD4+ or CD8+ cells were added to each well along with various concentrations of the individual test compounds or controls. The cultures were then incubated at 37° C. for 1 day and supernatants were harvested and stored at −80° C. Cytokine profiles were determined using a BD Cytometric Bead Array Human Inflammation KIT (BD Biosciences, San Diego, Calif.). Briefly, 50 μl of culture supernates and standards were added to 100 μl of capture beads and detection reagent. Tubes were incubated for 3 hours at room temperature, washed with 1 ml of wash buffer and centrifuged prior to collection of the supernate. Wash buffer (300 μl) was added and samples immediately analyzed on the flow cytometer after vortexing. Known positive and negative samples and including a standard curve were included with each assay and all samples analyzed in triplicate. In addition, cultured cells (1×10^6) were washed in PBS with 0.1% bovine serum albumin (PBS/BSA), resuspended in 100 μl PBS/BSA, and incubated with anti-human CD3, CD19, CD69 and CD83 antibody for 1 hour at 4° C. Cells were resuspended in 1.0 ml PBS/BSA and analyzed on the flow cytometer.
# CD8 T cells = assay: Cytokine production of isolated CD8 T cells activated with anti CD3; assay type: cell-based, human
# Method: as §1, with “Briefly, 50 μl of culture supernates and standards were added to 100 μl of capture beads and detection reagent. Tubes were incubated for 3 hours at room temperature, washed with 1 ml of wash buffer and centrifuged prior to collection of the supernate.” left out, “In addition, cultured cells (1×10^6) were washed in PBS with 0.1% bovine serum albumin (PBS/BSA), resuspended in 100 μl PBS/BSA, and incubated with anti-human CD3, CD19, CD69 and CD83 antibody for 1 hour at 4° C.” left out
smiles,measurement,setting,value
COc1cc([C@H]2Oc3cc(O)cc(O)c3C[C@H]2O)ccc1O [3′-O-methyl-(−)-epicatechin],IFN-γ levels over media control and (−)-epicatechin treated cells,CD4 T cells,significantly higher levels
same,IL-10 levels over media control and (−)-epicatechin treated cells,CD4 T cells,significantly higher levels
same,TNF-α levels over media control and (−)-epicatechin treated cells,CD4 T cells,significantly higher levels
same,IFN-γ amounts over the media controls,CD8 T cells,significantly higher amounts
